According to US20240116875A1, “RATIONAL DESIGN, OPTIMIZATION, AND BIOLOGICAL EVALUATION OF NOVEL MEK4 INHIBITORS AGAINST PANCREATIC ADENOCARCINOMA” (NORTHWESTERN UNIVERSITY, priority 2022, published 2024):
Entries after “also recorded” stand apart in the source; their conditions may differ.

Tests used:
CYP 2D6 = CYP 2D6 (Homo sapiens, UniProt P10635); assay: CYP inhibition, 2D6
ERK1 = molecular target: T1, ERK1 (Homo sapiens, UniProt P27361); assay: scanEDGE DiscoverX kinome-wide scan, ERK1; format: binding; details: 10 μM
T1 construct: purchased Eurofins DiscoverX scanEDGE
Text: (§1) To compare our compounds to the rest of the MEK inhibitors discovered thus far, we turned to the DiscoverX platform (KINOMEscan®, Eurofins DiscoverX), a widely used assay for comparing selectivity across the kinome. The DiscoverX platform reports the thermodynamic Kd in order to facilitate direct comparison of inhibitor affinity across the kinome, independent of ATP concentration.

[1] = Log D study (BioDuro-Sundia); details: pH of 7.4
CYP 2C19 = CYP 2C19 (Homo sapiens, UniProt P33261); assay: CYP inhibition, 2C19
[2] = test system: JNK phosphorylation in MiaPaCa2 cells; assay: anisomycin-induced JNK phosphorylation, western blotting, MiaPaCa2; format: cell-based, human; details: MiaPaCa2, anisomycin 45 minutes then compound 5 hours
Protocol: (§2) HSP90 was used as loading control. The blots are representative of at least three biological replicates.
(§3) We also examined the effects of these inhibitors on JNK phosphorylation and proliferation of two pancreatic cancer cell lines (CD18 and MiaPaCa2).
(§4) Human pancreatic cancer cell lines (CD18/HPAF-II and MiaPaCa2) and HEK293T cells were obtained from American Type Culture Collection. All cell lines were cultured according to the manufacturer's protocol. All media contained 10% Fetal Bovine Serum (FBS) and antibiotics (100 U/mL Penicillin and 100 μg/mL Streptomycin).
(§5) Whole cell extracts of cultured cells were prepared in radioimmunoprecipitation (RIPA) lysis buffer supplemented with phosphatase and protease inhibitors (Calbiochem). Protein concentration was determined by the bicinchoninic acid assay (BCA) (ThermoFisher) and separated by the SDS-PAGE technique. […] Secondary anti-mouse IgG (A4416) and anti-rabbit IgG (A6667) antibodies were purchased from Sigma-Aldrich and used a 1:4000 dilution. Images of blots were acquired on HyBlot ES Autoradiography Film (Thomas Scientific, Swedesboro, NJ, USA) following incubation with SuperSignal West Pico PLUS (ThermoFisher).

CYP isoforms 3A4/5 = assay: CYP inhibition, 3A4/5
CD18 cells = assay: cell proliferation (cell count after 72 hours), CD18; format: cell-based, human; details: CD18, 72 hours, varying doses, single agent
Protocol: (§6) After 72 hours, cells were trypsinized, counted, and the cell numbers were normalized against the DMSO treatment. Mean±SD. Graphs are representative of 3 biological replicates.
as §6
Cell numbers from different treatments were normalized against the DMSO treatment, and CDI is calculated as follows: CDI=AB/(A×B), with AB being the ratio of the combination groups to control group and A or B being the ratio of the single agent group to the DMSO group. Mean±SEM from 3 biological replicates.
as §3, §4

JNK1/2/3 = assay: scanEDGE DiscoverX kinome-wide scan, JNK1/2/3; format: binding; details: 10 μM
Text: as §1

[3] = test system: JNK phosphorylation in HEK293T cells; assay: anisomycin-induced JNK phosphorylation, western blotting, HEK293T; format: cell-based, human; details: anisomycin 45 minutes then compound 5 hours, increasing doses
Protocol: The blots are representative of at least three biological replicates.
as §3, §4, §5

RAF = molecular target: T2, RAF (Homo sapiens, UniProt P04049); assay: scanEDGE DiscoverX kinome-wide scan, RAF; format: binding; details: 10 μM
T2 construct: purchased Eurofins DiscoverX scanEDGE
Text: as §1

[4] = test system: phospho-p42/44 MAPK in HEK293T cells; assay: p42/44 MAPK (ERK1/2) phosphorylation, western blotting, HEK293T; format: cell-based, human; details: anisomycin pretreatment, compound 100 μM, 5 hours
Protocol: as §2
We next evaluated the effects of our inhibitors on the phosphorylation activity and expression of MEK1/2, MEK3/6, and MEK7. […] We also evaluated the effects on p42/44 MAPK (ERK1/2), which functions downstream of MEK1/2.
as §5

T2 sequence (P04049 whole entry): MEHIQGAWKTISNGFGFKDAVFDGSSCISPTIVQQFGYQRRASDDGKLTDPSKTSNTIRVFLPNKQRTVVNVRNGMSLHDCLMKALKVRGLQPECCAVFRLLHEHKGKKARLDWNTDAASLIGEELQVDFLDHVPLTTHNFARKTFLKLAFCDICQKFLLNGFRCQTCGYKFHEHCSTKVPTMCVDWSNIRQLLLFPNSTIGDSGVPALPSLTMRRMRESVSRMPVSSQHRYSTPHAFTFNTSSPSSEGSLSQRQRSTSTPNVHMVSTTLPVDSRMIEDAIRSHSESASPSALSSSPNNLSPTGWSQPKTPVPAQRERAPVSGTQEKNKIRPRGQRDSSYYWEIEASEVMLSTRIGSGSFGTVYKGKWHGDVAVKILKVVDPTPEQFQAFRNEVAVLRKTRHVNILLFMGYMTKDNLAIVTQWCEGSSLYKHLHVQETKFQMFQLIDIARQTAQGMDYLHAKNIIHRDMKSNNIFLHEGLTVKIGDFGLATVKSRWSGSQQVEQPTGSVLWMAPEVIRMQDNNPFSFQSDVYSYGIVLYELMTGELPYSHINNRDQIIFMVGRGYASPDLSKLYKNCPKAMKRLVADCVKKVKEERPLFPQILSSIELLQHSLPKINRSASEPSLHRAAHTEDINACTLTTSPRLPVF
T1 sequence (P27361 whole entry): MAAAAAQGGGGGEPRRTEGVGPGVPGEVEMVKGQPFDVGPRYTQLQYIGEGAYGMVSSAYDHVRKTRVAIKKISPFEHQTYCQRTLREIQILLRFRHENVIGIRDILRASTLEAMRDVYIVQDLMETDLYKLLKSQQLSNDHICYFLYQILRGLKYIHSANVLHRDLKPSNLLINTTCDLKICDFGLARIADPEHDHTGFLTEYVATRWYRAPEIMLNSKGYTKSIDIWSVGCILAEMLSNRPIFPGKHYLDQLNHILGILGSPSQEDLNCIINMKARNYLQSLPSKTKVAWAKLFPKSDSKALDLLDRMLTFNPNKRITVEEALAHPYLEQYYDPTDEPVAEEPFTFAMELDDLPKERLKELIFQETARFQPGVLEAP
Chain of CYP 2D6 (P10635 whole entry): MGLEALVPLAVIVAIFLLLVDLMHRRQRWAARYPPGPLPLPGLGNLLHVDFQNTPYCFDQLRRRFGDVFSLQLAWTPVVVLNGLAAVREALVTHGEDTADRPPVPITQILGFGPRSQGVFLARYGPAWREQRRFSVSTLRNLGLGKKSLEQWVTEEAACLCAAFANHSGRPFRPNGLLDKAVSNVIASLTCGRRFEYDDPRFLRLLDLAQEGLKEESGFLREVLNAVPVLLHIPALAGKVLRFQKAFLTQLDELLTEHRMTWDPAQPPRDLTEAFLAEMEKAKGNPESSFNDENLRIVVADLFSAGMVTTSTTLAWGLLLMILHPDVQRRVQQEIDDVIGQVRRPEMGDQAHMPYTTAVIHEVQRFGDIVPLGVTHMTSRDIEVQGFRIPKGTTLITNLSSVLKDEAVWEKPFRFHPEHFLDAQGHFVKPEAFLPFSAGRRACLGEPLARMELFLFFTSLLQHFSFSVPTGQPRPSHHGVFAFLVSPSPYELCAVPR
Chain of CYP 2C19 (P33261 whole entry): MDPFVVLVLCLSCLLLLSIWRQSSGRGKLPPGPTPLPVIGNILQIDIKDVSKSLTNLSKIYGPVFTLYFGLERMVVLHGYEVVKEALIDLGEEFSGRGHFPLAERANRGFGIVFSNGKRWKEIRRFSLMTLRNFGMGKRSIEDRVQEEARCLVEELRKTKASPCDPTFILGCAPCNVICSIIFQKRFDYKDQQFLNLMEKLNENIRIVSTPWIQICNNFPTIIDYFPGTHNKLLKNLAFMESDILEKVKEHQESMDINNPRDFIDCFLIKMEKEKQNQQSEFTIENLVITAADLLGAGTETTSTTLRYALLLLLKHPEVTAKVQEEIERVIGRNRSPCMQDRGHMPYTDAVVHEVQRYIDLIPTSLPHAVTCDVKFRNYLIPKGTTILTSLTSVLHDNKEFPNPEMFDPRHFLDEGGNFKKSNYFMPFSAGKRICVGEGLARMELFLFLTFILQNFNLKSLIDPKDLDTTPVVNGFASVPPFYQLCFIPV

NC(=O)c1ccc(NS(=O)(=O)c2cccc(-c3n[nH]c4cc(F)ccc34)c2)cc1 [Compound 15o, 4-((3-(6-fluoro-1H-indazol-3-yl)phenyl)sulfonamido)benzamide]
inhibition of CYP 2D6 (CYP 2D6): low inhibition | inhibition of ERK1 (ERK1): did not inhibit | log D [1]: 3.22 | inhibition of CYP 2C19 (CYP 2C19): inhibited | effect on anisomycin-induced JNK phosphorylation [2]: attenuated anisomycin-induced JNK phosphorylation | inhibition of CYP isoforms 3A4/5 (CYP isoforms 3A4/5): did not inhibit | cell proliferation (CD18 cells): decreased proliferation; also recorded: antiproliferative properties | inhibition of JNK1/2/3 (JNK1/2/3): did inhibit | effect on anisomycin-induced JNK phosphorylation [3]: attenuated anisomycin-induced INK phosphorylation in a dose-dependent manner | inhibition of RAF (RAF): did not inhibit | effect on p42/44 MAPK phosphorylation after anisomycin [4]: reversed the effects of anisomycin
